For this test, the target named is human α-thrombin (Homo sapiens, UniProt P00734). As to the kind of experiment: Kinetics of substrate hydrolysis by proteolytic enzyme (initial rates, centrifugal analyzer, Hanes plot). The note with it: substrate for human α-thrombin. Format: biochemical.

Square brackets hold non-standard residues; d marks the D form. Peptide text beside a SMILES is read from it. * marks the point of attachment. SBn = c1ccc(CS*)cc1

From the text: The Michaelis-Menten constant, Km, is a kinetic parameter related to the affinity of a substrate for an enzyme under a given set of reaction conditions. The Km is defined as the substrate concentration at which the initial reaction velocity is one-half of the maximal initial reaction velocity. The maximal velocity (vmax), another important kinetic parameter, when divided by the enzyme concentration, yields kcat. The determination of Km and kcat for a given substrate with various enzymes allows the determination of the selectivity of that substrate for a given enzyme.
Km and vmax values can be determined by utilizing a centrifugal analyzer (GEMSAEC system, available from Electro-Nucleonics, Inc., Fairfield, N.J.) to measure the initial rates of substrate hydrolysis by the proteolytic enzyme. Five substrate concentrations ([S]), ranging from about one-fifth to five times the expected Km, can be used for triplicate determinations in this centrifugal analyzer. The initial reaction rates (v) can then be plotted in a Hanes plot, [S]/v versus [S], for a determination of Km (the absolute value of the X-intercept) and vmax (the reciprocal of the slope) through linear regression analysis. Alternative procedures are available for the calculation of Km and vmax.
For a given enzyme, lower Km values for a series of substrates indicate higher affinity of the substrate to the enzyme. This allows the utilization of lesser amounts of substrate while still operating at vmax.

For orientation: Km means the substrate concentration at which the rate is half of its maximum. Broadly, the kcat is the number of substrate molecules converted per active site and unit of time at saturation. Consider `CC(C)C[C@H](NC(=O)[C@H](N)C(C)C)C(=O)N[C@@H](CCCCN)C(=O)SCc1ccccc1` [H--D-Val--Leu--Lys--S--Bzl] (H-[dV]-Leu-Lys-SBn), for which the Km was determined as 16 µM and the kcat was 94 s⁻¹.
For `NCCCC[C@H](NC(=O)OCc1ccccc1)C(=O)SCc1ccccc1` [Z--Lys--S--Bzl], in that order: 38 µM and 84 s⁻¹.

(Values after patent US4434096A, “Substrates for the quantitative determination of proteolytic enzymes” (E. I. Du Pont de Nemours and Company, priority 1981, dated 1984).)
